The source of these data is ChEMBL document CHEMBL4602678, “Identification of Holrhizins E-Q Reveals the Diversity of Nonribosomal Lipopeptides in Paraburkholderia rhizoxinica” (J Nat Prod, 2020).

Assay [1] in a line: Cytotoxicity against human Kasumi cells incubated for 2 days by MTT assay. The assay is classed as functional, cell-based. The conditions noted are these: 48 h.
A further assay has as its system MDA-MB-231. In words: Cytotoxicity against human MDA-MB-231 cells incubated for 2 days by MTT assay. The assay is classed as functional, cell-based. Conditions: MDA-MB-231, 48 h. (Tetrazolium assays rely on reduction of a dye to a coloured formazan, in cell work by metabolically active cells.)
For the next assay, the system named is K562. In words: Cytotoxicity against human K562 cells incubated for 2 days by MTT assay. Format: functional, cell-based. Conditions: K562, 48 h.
The next assay has as its system Bacillus subtilis. In words: Antimicrobial activity against Bacillus subtilis ATCC 6633 incubated for 24 hrs by Kirby-Bauer disk diffusion method. Format: functional. Conditions: ATCC 6633, 24 h. A general note: In agar diffusion tests the substance spreads into inoculated agar from a disc or well.
The next assay concerns Staphylococcus aureus. In words: Antimicrobial activity against Staphylococcus aureus ATCC 29213 incubated for 24 hrs by Kirby-Bauer disk diffusion method. Format: functional. The conditions noted are these: ATCC 29213, 24 h.
The next assay has as its system Candida albicans. In words: Antimicrobial activity against Candida albicans incubated for 24 hrs by Kirby-Bauer disk diffusion method. The assay is classed as functional.
The next assay deals with SGC-7901. In words: Cytotoxicity against human SGC7901 cells incubated for 2 days by MTT assay. Format: functional, cell-based. Conditions: SGC-7901, 48 h.
For the next assay, the system named is MCF7. In words: Cytotoxicity against human MCF7 cells incubated for 2 days by MTT assay. Format: functional, cell-based. The conditions noted are these: MCF7, 48 h.
In another assay the test system is Rhizoctonia solani. In words: Antimicrobial activity against Rhizoctonia solani incubated for 24 hrs by Kirby-Bauer disk diffusion method. Format: functional.
Another assay has as its system A549. In words: Cytotoxicity against human A549 cells incubated for 2 days by MTT assay. The assay is classed as functional, cell-based. The conditions noted are these: A549, 48 h.
A further assay deals with Aspergillus fumigatus. In words: Antimicrobial activity against Aspergillus fumigatus incubated for 24 hrs by Kirby-Bauer disk diffusion method. Format: functional.
Assay [2] is described as follows: Cytotoxicity against human 2B cells incubated for 2 days by MTT assay. The assay is classed as cell-based. The conditions noted are these: 48 h.
In a further assay the test system is HepG2. In words: Cytotoxicity against human HepG2 cells incubated for 2 days by MTT assay. The assay is classed as functional, cell-based. The conditions noted are these: HepG2, 48 h.
The subject of a further assay is Pseudomonas aeruginosa. In words: Antimicrobial activity against Pseudomonas aeruginosa […] ATCC 27853 incubated for 24 hrs by Kirby-Bauer disk diffusion method. Format: functional.
Another assay deals with HCT-116. In words: Cytotoxicity against human HCT116 cells incubated for 2 days by MTT assay. The conditions noted are these: HCT-116, 48 h. Format: functional, cell-based.
The test system of a further assay is Escherichia coli. In words: Antimicrobial activity against Escherichia coli ATCC 35218 incubated for 24 hrs by Kirby-Bauer disk diffusion method. The assay is classed as functional. The conditions noted are these: ATCC 35218, 24 h.

Each structure is given as a SMILES string. Where a SMILES comes first, the peptide text is derived from it. The star is where a group is joined. Octanoyl = CCCCCCCC(=O)* Where only a bound is given, the exact number is not on record here.

A word on the IC50: it is the concentration at which inhibition is half-maximal. Read a high IC50 as weaker potency in that assay. The term MIC denotes the smallest concentration in the dilution series that meets the test's criterion for growth inhibition. Lower therefore signals a more susceptible organism.

`CCCCCCCC(=O)N[C@H](C(=O)N[C@@H](Cc1ccccc1)C(=O)N[C@@H](CCC(=O)O)C(=O)N[C@H](C(=O)O)[C@@H](C)CC)C(C)C` (Octanoyl-VFEI-OH): the IC50 (in [1]; with MDA-MB-231; in the assay on K562; with SGC-7901; in the assay on MCF7; with A549) was greater than 40 µM in each case. In addition, the IC50 (in assay [2]; in the assay with HepG2; in the assay with HCT-116) was greater than 40 µM each time. Also, the MIC in the assay on Bacillus subtilis, with Staphylococcus aureus, against Candida albicans, in the assay on Rhizoctonia solani, with Aspergillus fumigatus and in the assay on Pseudomonas aeruginosa was greater than 100 µM throughout. The compound further had an MIC in the assay with Escherichia coli greater than 100 µM.
With `CCCCCCCC(=O)N[C@H](C(=O)N[C@@H](Cc1ccccc1)C(=O)N[C@@H](CCC(=O)O)C(=O)N[C@H](C(=O)N[C@@H](C)C(=O)N[C@H](C(=O)O)[C@@H](C)CC)[C@@H](C)CC)C(C)C` (Octanoyl-VFEIAI-OH), the IC50 (in assay [1]; in the assay on MDA-MB-231; in the assay with K562; with SGC-7901; in the assay with MCF7; with A549) was greater than 40 µM throughout. Also, the IC50 (in assay [2]; in the assay on HepG2; in the assay with HCT-116) was greater than 40 µM in each case. The MIC against Bacillus subtilis, against Staphylococcus aureus, with Candida albicans, against Rhizoctonia solani, with Aspergillus fumigatus and in the assay on Pseudomonas aeruginosa was greater than 100 µM each time. For the same compound, in the assay with Escherichia coli, the minimum inhibitory concentration (MIC) was greater than 100 µM.
As to `CCCCCCCC(=O)N[C@H](C(=O)N[C@@H](Cc1ccccc1)C(=O)N[C@@H](CCC(=O)O)C(=O)N[C@H](C(=O)N[C@@H](C)C(=O)N[C@@H](CC(C)C)C(=O)O)[C@@H](C)CC)C(C)C` (Octanoyl-VFEIAL-OH), the IC50 (in assay [1]; with MDA-MB-231; in the assay with K562; with SGC-7901; in the assay on MCF7; with A549) was greater than 40 µM each time. The IC50 (in assay [2]; in the assay on HepG2; in the assay on HCT-116) was greater than 40 µM in each case. In addition, the MIC against Bacillus subtilis, in the assay on Staphylococcus aureus, with Candida albicans, in the assay with Rhizoctonia solani, in the assay on Aspergillus fumigatus and with Pseudomonas aeruginosa was greater than 100 µM each time. Besides, the MIC in the assay on Escherichia coli was greater than 100 µM.
`CCCCCCCC(=O)N[C@H](C(=O)N[C@@H](Cc1ccccc1)C(=O)N[C@@H](CCC(=O)O)C(=O)N[C@H](C(=O)N[C@@H](C)C(=O)N[C@H](C(=O)O)C(C)C)[C@@H](C)CC)C(C)C` (Octanoyl-VFEIAV-OH): the IC50 (in assay [1]; in the assay with MDA-MB-231; with K562; in the assay on SGC-7901; in the assay on MCF7; with A549) was greater than 40 µM throughout. In addition, the IC50 (in assay [2]; in the assay on HepG2; with HCT-116) was greater than 40 µM each time. In addition, the MIC with Bacillus subtilis, in the assay with Staphylococcus aureus, in the assay on Candida albicans, in the assay on Rhizoctonia solani, with Aspergillus fumigatus and against Pseudomonas aeruginosa was greater than 100 µM throughout. In addition, the MIC against Escherichia coli is greater than 100 µM.
Consider `CCCCCCCC(=O)N[C@H](C(=O)N[C@@H](Cc1ccccc1)C(=O)N[C@@H](CCC(=O)O)C(=O)N[C@H](C(=O)NCC(=O)N[C@H](C(=O)O)[C@@H](C)CC)[C@@H](C)CC)C(C)C` (Octanoyl-VFEIGI-OH), for which the IC50 (in assay [1]; in the assay with MDA-MB-231; in the assay with K562; in the assay with SGC-7901; in the assay with MCF7; with A549) was greater than 40 µM in each case. For the same compound, the IC50 (in assay [2]; in the assay on HepG2; in the assay with HCT-116) was greater than 40 µM each time. In addition, the minimum inhibitory concentration (MIC) in the assay with Bacillus subtilis, in the assay with Staphylococcus aureus, in the assay on Candida albicans, in the assay with Rhizoctonia solani, in the assay with Aspergillus fumigatus and in the assay on Pseudomonas aeruginosa was greater than 100 µM throughout. The MIC against Escherichia coli is greater than 100 µM.
As to `CCCCCCCC(=O)N[C@H](C(=O)N[C@@H](Cc1ccccc1)C(=O)N[C@@H](CCC(=O)O)C(=O)N[C@@H](CC(C)C)C(=O)O)C(C)C` (Octanoyl-VFEL-OH), the IC50 (in assay [1]; in the assay on MDA-MB-231; with K562; with SGC-7901; with MCF7; in the assay with A549) was greater than 40 µM throughout. The IC50 (in assay [2]; in the assay with HepG2; in the assay with HCT-116) was greater than 40 µM each time. In addition, the MIC against Bacillus subtilis, against Staphylococcus aureus, against Candida albicans, against Rhizoctonia solani, in the assay on Aspergillus fumigatus and against Pseudomonas aeruginosa was greater than 100 µM in each case. In addition, in the assay with Escherichia coli, the MIC is greater than 100 µM.
Regarding `CCCCCCCC(=O)N[C@H](C(=O)N[C@@H](Cc1ccccc1)C(=O)N[C@@H](CCC(=O)O)C(=O)N[C@@H](CC(C)C)C(=O)N[C@@H](C)C(=O)N[C@H](C(=O)O)[C@@H](C)CC)C(C)C` (Octanoyl-VFELAI-OH), the IC50 (in [1]; with MDA-MB-231; in the assay with K562; in the assay with SGC-7901; in the assay on MCF7; in the assay with A549) was greater than 40 µM each time. Further, the IC50 (in assay [2]; in the assay with HepG2; with HCT-116) was greater than 40 µM throughout. Besides, the MIC in the assay on Bacillus subtilis, in the assay with Staphylococcus aureus, against Candida albicans, in the assay on Rhizoctonia solani, against Aspergillus fumigatus and with Pseudomonas aeruginosa was greater than 100 µM each time. The same compound showed an MIC in the assay on Escherichia coli greater than 100 µM.
Consider `CCCCCCCC(=O)N[C@H](C(=O)N[C@@H](Cc1ccccc1)C(=O)N[C@@H](CCC(=O)O)C(=O)N[C@@H](CC(C)C)C(=O)N[C@@H](C)C(=O)N[C@@H](CC(C)C)C(=O)O)C(C)C` (Octanoyl-VFELAL-OH), for which the IC50 (in assay [1]; in the assay on MDA-MB-231; with K562; in the assay with SGC-7901; in the assay with MCF7; in the assay with A549) was greater than 40 µM in each case. The IC50 (in assay [2]; in the assay on HepG2; in the assay with HCT-116) was greater than 40 µM each time. Moreover, the MIC in the assay on Bacillus subtilis, with Staphylococcus aureus, with Candida albicans, in the assay with Rhizoctonia solani, against Aspergillus fumigatus and against Pseudomonas aeruginosa was greater than 100 µM throughout. Also, in the assay on Escherichia coli, the MIC is greater than 100 µM.
With `CCCCCCCC(=O)N[C@H](C(=O)N[C@@H](Cc1ccccc1)C(=O)N[C@@H](CCC(=O)O)C(=O)N[C@@H](CC(C)C)C(=O)N[C@@H](C)C(=O)N[C@H](C(=O)O)C(C)C)C(C)C` (Octanoyl-VFELAV-OH), the IC50 (in assay [1]; in the assay with MDA-MB-231; with K562; in the assay on SGC-7901; in the assay with MCF7; in the assay on A549) was greater than 40 µM each time. For the same compound, the IC50 (in assay [2]; in the assay with HepG2; in the assay with HCT-116) was greater than 40 µM in each case. Moreover, the MIC against Bacillus subtilis, against Staphylococcus aureus, against Candida albicans, against Rhizoctonia solani, with Aspergillus fumigatus and against Pseudomonas aeruginosa was greater than 100 µM throughout. Moreover, the MIC in the assay on Escherichia coli was greater than 100 µM.
`CCCCCCCC(=O)N[C@H](C(=O)N[C@@H](Cc1ccccc1)C(=O)O)C(C)C` (Octanoyl-Val-Phe-OH): the IC50 (in [1]; in the assay on MDA-MB-231; with K562; in the assay on SGC-7901; in the assay on MCF7; with A549) was greater than 40 µM each time. In addition, the half-maximal inhibitory concentration (IC50) (in [2]; with HepG2; in the assay with HCT-116) was greater than 40 µM each time. In addition, the MIC against Bacillus subtilis, with Staphylococcus aureus, against Candida albicans, against Rhizoctonia solani, against Aspergillus fumigatus and in the assay with Pseudomonas aeruginosa was greater than 100 µM throughout. Moreover, the MIC against Escherichia coli is greater than 100 µM.
